# Tested on: HSSY-II complex spheroid growth, percent test/control
# Assay: Anticancer human tumor HSSY-II cell line growth inhibition [Asc];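 further: spheroids exposed to drug for 7 days before reading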
# Conditions: for IC50: curve of first compound; for viability, T/C: stronger effect = lower value
# In short: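 Complex solid-tumor spheroids incorporating human endothelial and mesenchymal stem cells received single agents or combinations over half-log dilution ranges anchored to clinical Cmax.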
# [1] = second compound 0.03 µM, first compound 0.0316 µM
# [2] = second compound 0.03 µM, first compound 0.1 µM
# [3] = second compound 0.03 µM, first compound 0.316 µM
# [4] = second compound 0.03 µM, first compound 1 µM
# [5] = second compound 0.0949 µM, first compound 0.0316 µM
# [6] = second compound 0.0949 µM, first compound 0.1 µM
# [7] = second compound 0.0949 µM, first compound 0.316 µM
# [8] = second compound 0.0949 µM, first compound 1 µM
# [9] = second compound 0.3 µM, first compound 0.0316 µM
# [10] = second compound 0.3 µM, first compound 0.1 µM
# [11] = second compound 0.3 µM, first compound 0.316 µM
# [12] = second compound 0.3 µM, first compound 1 µM
# [13] = second compound 0.949 µM, first compound 0.0316 µM
# [14] = second compound 0.949 µM, first compound 0.1 µM
# [15] = second compound 0.949 µM, first compound 0.316 µM
# [16] = second compound 0.949 µM, first compound 1 µM
# [17] = second compound 3 µM, first compound 0.0316 µM
# [18] = second compound 3 µM, first compound 0.1 µM
# [19] = second compound 3 µM, first compound 0.316 µM
# [20] = second compound 3 µM, first compound 1 µM
smiles,measurement,setting,value
NC(=O)C(=Cn1cnc(-c2cc(C(F)(F)F)cc(C(F)(F)F)c2)n1)c1cncnc1 + CCN1C(C(=O)NC23CCC(C(=O)O)(CC2)CC3)C(c2cccc(Cl)c2F)C2(C(=O)Nc3cc(Cl)ccc32)C12CCCCC2,IC50,second compound 0.03 µM,10.5 nM
same,IC50,second compound 0.0949 µM,3.06 nM
same,IC50,second compound 0.3 µM,< 0.949 nM
same,IC50,second compound 0.949 µM,< 0.949 nM
same,IC50,second compound 3 µM,< 0.949 nM
same,"viability, T/C","second compound 0.03 µM, first compound 0.000949 µM",97.5%
same,"viability, T/C","second compound 0.03 µM, first compound 0.003 µM",76%
same,"viability, T/C","second compound 0.03 µM, first compound 0.00949 µM",51.1%
same,"viability, T/C","second compound 0.03 µM, first compound 0.03 µM",31.9%
same,"viability, T/C","second compound 0.03 µM, first compound 0.0949 µM",7.28%
same,"viability, T/C","second compound 0.03 µM, first compound 0.3 µM",0.44%
same,"viability, T/C","second compound 0.0949 µM, first compound 0.000949 µM",63.5%
same,"viability, T/C","second compound 0.0949 µM, first compound 0.003 µM",52.7%
same,"viability, T/C","second compound 0.0949 µM, first compound 0.00949 µM",26.6%
same,"viability, T/C","second compound 0.0949 µM, first compound 0.03 µM",15.9%
same,"viability, T/C","second compound 0.0949 µM, first compound 0.0949 µM",2.85%
same,"viability, T/C","second compound 0.0949 µM, first compound 0.3 µM",0.23%
same,"viability, T/C","second compound 0.3 µM, first compound 0.000949 µM",21.4%
same,"viability, T/C","second compound 0.3 µM, first compound 0.003 µM",18%
same,"viability, T/C","second compound 0.3 µM, first compound 0.00949 µM",11.6%
same,"viability, T/C","second compound 0.3 µM, first compound 0.03 µM",3.8%
same,"viability, T/C","second compound 0.3 µM, first compound 0.0949 µM",0.31%
same,"viability, T/C","second compound 0.3 µM, first compound 0.3 µM",0.12%
same,"viability, T/C","second compound 0.949 µM, first compound 0.000949 µM",7.25%
same,"viability, T/C","second compound 0.949 µM, first compound 0.003 µM",5.2%
same,"viability, T/C","second compound 0.949 µM, first compound 0.00949 µM",2.01%
same,"viability, T/C","second compound 0.949 µM, first compound 0.03 µM",0.49%
same,"viability, T/C","second compound 0.949 µM, first compound 0.0949 µM",0.03%
same,"viability, T/C","second compound 0.949 µM, first compound 0.3 µM",0.14%
same,"viability, T/C","second compound 3 µM, first compound 0.000949 µM",2.04%
same,"viability, T/C","second compound 3 µM, first compound 0.003 µM",1.1%
same,"viability, T/C","second compound 3 µM, first compound 0.00949 µM",0.3%
same,"viability, T/C","second compound 3 µM, first compound 0.03 µM",0.2%
same,"viability, T/C","second compound 3 µM, first compound 0.0949 µM",0.16%
same,"viability, T/C","second compound 3 µM, first compound 0.3 µM",0.26%
CCN1CCN(Cc2ccc(Nc3ncc(F)c(-c4cc(F)c5nc(C)n(C(C)C)c5c4)n3)nc2)CC1 + CCN1C(C(=O)NC23CCC(C(=O)O)(CC2)CC3)C(c2cccc(Cl)c2F)C2(C(=O)Nc3cc(Cl)ccc32)C12CCCCC2,IC50,second compound 0.03 µM,83.5 nM
same,IC50,second compound 0.0949 µM,16.8 nM
same,IC50,second compound 0.3 µM,< 3.16 nM
same,IC50,second compound 0.949 µM,< 3.16 nM
same,IC50,second compound 3 µM,< 3.16 nM
same,"viability, T/C","second compound 0.03 µM, first compound 0.00316 µM",90.3%
same,"viability, T/C","second compound 0.03 µM, first compound 0.01 µM",72.4%
same,"viability, T/C",[1],58.7%
same,"viability, T/C",[2],49.1%
same,"viability, T/C",[3],39.5%
same,"viability, T/C",[4],22.7%
same,"viability, T/C","second compound 0.0949 µM, first compound 0.00316 µM",63%
same,"viability, T/C","second compound 0.0949 µM, first compound 0.01 µM",57.5%
same,"viability, T/C",[5],41.1%
same,"viability, T/C",[6],34%
same,"viability, T/C",[7],26.1%
same,"viability, T/C",[8],12.1%
same,"viability, T/C","second compound 0.3 µM, first compound 0.00316 µM",27.4%
same,"viability, T/C","second compound 0.3 µM, first compound 0.01 µM",22.6%
same,"viability, T/C",[9],24.6%
same,"viability, T/C",[10],19.2%
same,"viability, T/C",[11],13.8%
same,"viability, T/C",[12],5.79%
same,"viability, T/C","second compound 0.949 µM, first compound 0.00316 µM",8.49%
same,"viability, T/C","second compound 0.949 µM, first compound 0.01 µM",8.58%
same,"viability, T/C",[13],8.12%
same,"viability, T/C",[14],6.47%
same,"viability, T/C",[15],6.16%
same,"viability, T/C",[16],3.21%
same,"viability, T/C","second compound 3 µM, first compound 0.00316 µM",2.42%
same,"viability, T/C","second compound 3 µM, first compound 0.01 µM",2.83%
same,"viability, T/C",[17],2.95%
same,"viability, T/C",[18],2.31%
same,"viability, T/C",[19],2.12%
same,"viability, T/C",[20],4.53%
C#Cc1c(F)ccc2cc(O)cc(-c3ncc4c(N5CC6CCC(C5)N6)nc(OCC56CCCN5CC(F)C6)nc4c3F)c12 (stereo not given) + CCN1C(C(=O)NC23CCC(C(=O)O)(CC2)CC3)C(c2cccc(Cl)c2F)C2(C(=O)Nc3cc(Cl)ccc32)C12CCCCC2,IC50,second compound 0.03 µM,5960 nM
same,IC50,second compound 0.0949 µM,3250 nM
same,IC50,second compound 0.3 µM,< 31.6 nM
same,IC50,second compound 0.949 µM,< 31.6 nM
same,IC50,second compound 3 µM,< 31.6 nM
same,"viability, T/C",[1],91.6%
same,"viability, T/C",[2],96.6%
same,"viability, T/C",[3],91.1%
same,"viability, T/C",[4],90.7%
same,"viability, T/C","second compound 0.03 µM, first compound 3.16 µM",80.8%
same,"viability, T/C","second compound 0.03 µM, first compound 10 µM",24.9%
same,"viability, T/C",[5],52.4%
same,"viability, T/C",[6],62.3%
same,"viability, T/C",[7],65.7%
same,"viability, T/C",[8],59%
same,"viability, T/C","second compound 0.0949 µM, first compound 3.16 µM",50.6%
same,"viability, T/C","second compound 0.0949 µM, first compound 10 µM",9.38%
same,"viability, T/C",[9],24.8%
same,"viability, T/C",[10],27.5%
same,"viability, T/C",[11],26%
same,"viability, T/C",[12],20.6%
same,"viability, T/C","second compound 0.3 µM, first compound 3.16 µM",20.2%
same,"viability, T/C","second compound 0.3 µM, first compound 10 µM",0.94%
same,"viability, T/C",[13],7.03%
same,"viability, T/C",[14],7.37%
same,"viability, T/C",[15],6.79%
same,"viability, T/C",[16],5.65%
same,"viability, T/C","second compound 0.949 µM, first compound 3.16 µM",5.67%
same,"viability, T/C","second compound 0.949 µM, first compound 10 µM",0.22%
same,"viability, T/C",[17],2.13%
same,"viability, T/C",[18],2.33%
same,"viability, T/C",[19],2.2%
same,"viability, T/C",[20],1.74%
same,"viability, T/C","second compound 3 µM, first compound 3.16 µM",1.34%
same,"viability, T/C","second compound 3 µM, first compound 10 µM",0.27%

# — PubChem BioAssay AID1963444 (Molecular Pharmacology Branch, DTP, NCI, 2024)
